What was measured:
[1] = tested on: Foxp3+ Treg, CD8+ T cells, G-MDSC/neutrophils; assay type: in vivo; conditions: CTX treated vs only VTP
Description: (§1) • (i) Bacteriochlorophyll Derivatives—The Bchl derivatives and RGD-conjugates thereof were provided by Steba Biotech (Rehovot, Israel). […] Concentration was verified by spectrophotometric measurement. STL-7012 was provided as dipotassium salt. Working solution was prepared by dissolving STL-7012 K^+ salt in 5% mannitol solution (1 mg/ml). […] WST11 was supplied as a powder and kept in the dark at −20° C. Stock was prepared by dissolving WST11 in DDW containing 5% glucose and 0.67% mannitol, aliquoted and lyophilized. Working solution was reconstituted with DDW and the concentration of solution was confirmed spectrophotometrically. Alternatively, Clinical WST11 (batch: P00611, and 10-130611) was supplied as lyophilized formulation. Material was dissolved in 5% dextrose, aliquoted and stored at −20° C. […] Aliquots were thawed, diluted with saline to a desired concentration and used on the same day at a dose of 75 mg/kg. Cyclophosphamide (CTX, Endoxan®, Baxter Oncology Gmbh, Germany) was purchased from a local pharmacy. A stock solution of 20 mg/ml was prepared by dissolving in 0.9% NaCl, aliquoted and stored at −20° C. Aliquots were thawed, diluted with saline if needed to a desired concentration and used on the same day prepared at indicated doses. • (iii) Murine cell lines—Mammary luciferase (luc)-labeled 4T1 cell line (4T1-Luc) was a kind gift from Dr. Zvi Granot (Faculty of Medicine, The Hebrew University of Jerusalem, Israel); melanoma B16-F10 cell line was obtained from the American Type Culture Collection (ATCC, Manassas, Va.); bladder MB49 cell line was a kind gift from James Allison (MSKCC, New York, USA), and luc-labeled MB49-cell line was established using the murine stem cell virus (MSCV)-puromycin-luc-GFP construct (kindly provided by Dr. Emily Cheng, Human Oncology and Pathogenesis Program, MSKCC). 4T1 and MB49 cells were maintained in DMEM medium and B16-F10 cells in RPMI medium supplemented with 1 mmol/L sodium pyruvate, 10% fetal calf serum (FCS), 250 μg/ml hygromycin, 0.06 mg/ml penicillin and 0.1 mg/ml streptomycin. The cells were grown as monolayer at 37° C. in a humidified atmosphere (5% CO2, 95% air). • (iv) Murine tumor models—Female, Balb/c mice (6-8 week old) were grafted either subcutaneously (s.c.) into the right hind leg or orthotopically with 1×10^6 4T1 cells suspended in 50 or 1000 PBS. […] Whole body imaging of luciferase-transfected tumors and metastases were recorded five minutes following 75 mg Kg^−1 intraperitoneal (i.p.) injection of D-luciferin with respective filter sets. • (vi) PDT treatment protocol: 4T1-Luc cells were grafted in the mammary pad of Balb/c mice. […] Ablation of primary tumors was assessed every 7 days by imaging the tumor's luciferase-mediated bioluminescence signal, using IVIS.

[2] = tested on: s.c. 4T1-luc breast tumors; test: WST11 VTP with or without single dose CTX in mice bearing s.c. 4T1-luc tumors in the hind leg (Scheme 4); assay type: in vivo, Balb/c mice
Description: as §1

SMILES: CCC1c2cc3[n-]c(c(CC(=O)OC)c4nc(cc5[n-]c(cc(n2)C1C)c(C(C)=O)c5C)C(C)C4CCC(=O)[O-])c(C(=O)NCCS(=O)(=O)[O-])c3C.[K+].[K+].[Pd+2] (stereo not shown) [WST11, Palladium 3^1-oxo-15-methoxycarbonylmethyl-rhodobacteriochlorin 13^1-(2-sulfoethyl) amide dipotassium salt]
- total cell numbers in draining lymph nodes and spleens after VTP [1]: decrease in cell counts
- primary tumor growth ([2]; CTX 50 or 150 mg/kg alone, WST11 VTP at low light intensity (100 mW/cm^2) alone, or combination): unable to suppress primary tumor growth
- lung metastases ([2]; VTP alone, even when primary tumor completely ablated): most of the mice subjected to VTP alone developed lung metastases
- time to tumor regrowth ([2]; WST11 VTP at high light dose (150 mW/cm^2)): doubled

Source: patent US11278555B2, “Combinational therapies for treatment of cancer comprising a bacteriochlorophyll derivative” (Yeda Research and Development Co. Ltd., priority 2016, dated 2022)
